What all share (format): physicochemical
The nature of series [1]: Determination of specific surface area (BET isotherm, nitrogen). The protocol: Specific surface area is determined from BET isotherm measurements using nitrogen as the absorbed gas.
A short description of series [2]: Determination of particle flowability (Schulze shear cell tester). The following applies: flow factor coefficient, pre-consolidation pressure 2000 Pa. The protocol: Particle flowability is characterized using a Schulze shear cell tester with a pre-consolidation pressure of 2000 Pa. The powder sample is contained in an annular shear cell. A vertically acting force is applied to the lid of the flow cell allowing an adjustable normal stress to be applied. The shear cell is slowly rotated and the torque necessary to prevent the cover from rotating is recorded. The measured shear stress that is recorded is the shear stress required for the powder to move or flow against itself. From a plot of the shear stress versus normal force, the flowability or FFC is determined

The nature of series [3]: Determination of particle size distribution by laser diffraction. The following applies: for x10 / x90: cumulative volume distribution (undersized); for x50: median particle size. The protocol: Laser diffraction particle size analysis is employed to determine the x10, x50 and x90 values. The procedure uses Fraunhofer laser diffraction theory to calculate the particle size distribution. The analysis is performed with a Malvern Mastersizer 2000 equipped with a Hydro 2000S wet module. A filtered (0.22 μm) solution composed of 0.35% (v/v) sorbitan monooleate (SPAN® 80) in hexanes and saturated with semagacestat is used as the dispersant. The parameters used in the analysis are as follows: sample refractive index—1.555, sample absorption—0.1, dispersant refractive index—1.37, result calculation model—General purpose, normal sensitivity, sample measurement time—12 seconds, background measurement time—12 seconds, and stirrer/pump speed—2700 rpm. A dry sample is added to the Hydro 2000S wet module with sonication on at 100%, until the obscuration is between 10 and 20%. The sample is sonicated for 12 s and stirred for a total of 2 min (including sonication) prior to the analysis. Two separate assays are typically run; the average values are reported.

As for `CC(C)[C@H](O)C(=O)N[C@@H](C)C(=O)N[C@@H]1C(=O)N(C)CCc2ccccc21` [Method 2, Crystalline (2S)-2-hydroxy-3-methyl-N-[(1S)-1-methyl-2-oxo-2-[[(1S)-2,3,4,5-tetrahydro-3-methyl-2-oxo-1H-3-benzazepin-1-yl]amino]ethyl]-butanamide anhydrate Form II], in series [1], the SSA is reported as 1.1 m^2/g. This compound showed an FFC in series [2] of 2.0. For the same compound, in series [3], the x10 was 3.5 μm, the x90 is recorded as 54 μm and the x50 worked out at 17 μm.
Take `CC(C)[C@H](O)C(=O)N[C@@H](C)C(=O)N[C@@H]1C(=O)N(C)CCc2ccccc21` [Example 1, Crystalline (2S)-2-hydroxy-3-methyl-N-[(1S)-1-methyl-2-oxo-2-[[(1S)-2,3,4,5-tetrahydro-3-methyl-2-oxo-1H-3-benzazepin-1-yl]amino]ethyl]-butanamide anhydrate Form II]: the SSA in series [1] was 0.4 m^2/g. In series [2], this compound came in with an FFC of 3.8. In addition, in series [3], the x10 amounted to 14 μm, the x90 was 128 μm and the x50 is on record as 59 μm.

For the origin of these results see US8299059B2, “Crystalline compound and a process for its preparation” (Eli Lilly and Company, priority 2009, dated 2012).
